Test results from patent US11649251B2, “Substituted inhibitors of menin-MLL and methods of use” (Kura Oncology, Inc., priority 2017, dated 2023).

Biological target: T1, Menin MLL 4-43 (Homo sapiens, UniProt O00255)
T1 sequence (O00255 1-610): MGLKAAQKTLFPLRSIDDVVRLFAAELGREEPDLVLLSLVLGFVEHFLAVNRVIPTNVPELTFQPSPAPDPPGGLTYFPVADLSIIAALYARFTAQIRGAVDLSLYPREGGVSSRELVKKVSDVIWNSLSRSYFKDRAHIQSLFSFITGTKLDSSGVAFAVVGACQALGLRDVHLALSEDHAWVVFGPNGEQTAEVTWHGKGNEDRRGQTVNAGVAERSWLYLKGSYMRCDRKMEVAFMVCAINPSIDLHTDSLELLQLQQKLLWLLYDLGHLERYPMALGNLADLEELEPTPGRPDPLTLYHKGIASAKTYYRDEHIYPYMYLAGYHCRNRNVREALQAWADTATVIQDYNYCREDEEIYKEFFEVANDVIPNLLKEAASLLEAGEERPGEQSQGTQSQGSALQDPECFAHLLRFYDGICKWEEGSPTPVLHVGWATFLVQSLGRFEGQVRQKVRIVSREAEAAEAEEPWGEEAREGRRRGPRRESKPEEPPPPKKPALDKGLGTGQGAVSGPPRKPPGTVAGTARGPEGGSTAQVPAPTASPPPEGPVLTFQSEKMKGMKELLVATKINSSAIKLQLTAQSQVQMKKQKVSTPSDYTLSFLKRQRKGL
Experiment: Fluorescence polarization (FP) competition assay of the menin-MLL interaction
Assay type: binding
Conditions: fluorescence polarization competition with fluorescein-labeled MLL peptide
Text: This example illustrates an assay effective in monitoring the binding of MLL to menin. […] A fluorescein-labeled peptide containing the high affinity menin binding motif found in MLL was produced according to Yokoyama et al. (Cell, 2005, 123(2): 207-218), herein incorporated by reference in its entirety. Binding of the labeled peptide (1.7 kDa) to the much larger menin (˜67 kDa) is accompanied by a significant change in the rotational correlation time of the fluorophore, resulting in a substantial increase in the fluorescence polarization and fluorescence anisotropy (excitation at 500 nm, emission at 525 nm).

SMILES: CNS(=O)(=O)N1CCN([C@@H](C)Cn2c(C#N)cc3c(C)c(CN4CCC5(CCN(c6nc(C)nc7sc(CC(F)(F)F)cc67)C5)C4)ccc32)CC1 (stereo partly drawn) [Compound 1, 4-((2S)-1-(2-cyano-4-methyl-5-((7-(2-methyl-6-(2,2,2-trifluoroethyl)thieno[2,3-d]pyrimidin-4-yl)-2,7-diazaspiro[4.4]nonan-2-yl)methyl)-1H-indol-1-yl)propan-2-yl)-N-methylpiperazine-1-sulfonamide]
- IC50: 0.05 to 0.25 µM

SMILES: CCC(=O)NC12CC(Cn3c(C#N)cc4c(C)c(CN5CCC6(CCN(c7nc(C)nc8sc(CC(F)(F)F)cc78)C6)C5)ccc43)(C1)C2 (stereo not shown) [Compound 3, N-(3-((2-cyano-4-methyl-5-((7-(2-methyl-6-(2,2,2-trifluoroethyl)thieno[2,3-d]pyrimidin-4-yl)-2,7-diazaspiro[4.4]nonan-2-yl)methyl)-1H-indol-1-yl)methyl)bicyclo[1.1.1]pentan-1-yl)propionamide]
- IC50: 0.25 to 1 µM

SMILES: CNc1nc(N2CCC3(CCN(Cc4ccc5c(cc(C#N)n5C[C@H](C)N5CCN(S(=O)(=O)NC)CC5)c4C)C3)C2)c2cc(CC(F)(F)F)sc2n1 (stereo partly shown) [Compound 5]
- IC50: < 0.05 µM

SMILES: Cc1nc(N2CCC3(CCN(Cc4ccc5c(cc(C#N)n5C[C@H](C)N5CCN(S(C)(=O)=O)CC5)c4C)C3)C2)c2cc(CC(F)(F)F)sc2n1 (stereo partly shown) [Compound 8]
- IC50: 0.05 to 0.25 µM

SMILES: CNc1nc(N2CCC3(CCN(Cc4ccc5c(cc(C#N)n5C[C@H](C)N5CCN(S(C)(=O)=O)CC5)c4C)C3)C2)c2cc(CC(F)(F)F)sc2n1 (stereo partly shown) [Compound 9]
- IC50: 0.05 to 0.25 µM

SMILES: CCC(=O)NC12CC(Cn3c(C#N)cc4c(C)c(CN5CCC6(CCN(c7nc(NC)nc8sc(CC(F)(F)F)cc78)C6)C5)ccc43)(C1)C2 (stereo not shown) [Compound 11]
- IC50: 0.05 to 0.25 µM

SMILES: CNc1nc(N2CCC3(CCN(C[C@H]4CC[C@H](NS(C)(=O)=O)CC4)C3)C2)c2cc(CC(F)(F)F)sc2n1 (stereo partly shown) [Compound 14]
- IC50: < 0.05 µM

SMILES: Cc1nc(N2CCC3(CCN(Cc4ccc5c(cc(C#N)n5C[C@H](C)N5CCN(S(C)(=O)=O)CC5)c4C)C3)C2)c2cc(CC(F)(F)F)sc2n1 (stereo partly shown) [Compound 17]
- IC50: < 0.05 µM

SMILES: Cc1nc(N2CCC3(CCN(Cc4ccc5c(cc(C#N)n5C[C@@H]5CNC(=O)CO5)c4C)C3)C2)c2cc(CC(F)(F)F)sc2n1 (stereo partly shown) [Compound 21]
- IC50: < 0.05 µM

SMILES: CNc1nc(N2CCC3(CCN(Cc4ccc5c(cc(C#N)n5C[C@@H]5CNC(=O)CO5)c4C)C3)C2)c2cc(CC(F)(F)F)sc2n1 (stereo partly shown) [Compound 22]
- IC50: < 0.05 µM

SMILES: Cc1nc(N2CCC3(CCN(Cc4ccc(NS(C)(=O)=O)cc4)C3)C2)c2cc(CC(F)(F)F)sc2n1 (stereo not shown) [Compound 25]
- IC50: 0.25 to 1 µM

SMILES: CNc1nc(N2CCC3(CCN(Cc4ccc(NS(C)(=O)=O)cc4)C3)C2)c2cc(CC(F)(F)F)sc2n1 (stereo not shown) [Compound 26]
- IC50: 0.05 to 0.25 µM

SMILES: Cc1nc(N2CCC3(CCN(Cc4ccc5c(c4)[nH]c(=O)n5CCO)C3)C2)c2cc(CC(F)(F)F)sc2n1 (stereo not shown) [Compound 29]
- IC50: 0.25 to 1 µM

SMILES: CNc1nc(N2CCC3(CCN(Cc4ccc5c(c4)[nH]c(=O)n5CCO)C3)C2)c2cc(CC(F)(F)F)sc2n1 (stereo not shown) [Compound 30]
- IC50: < 0.05 µM

SMILES: Cc1nc(N2CCC3(CCN(Cc4ccc5[nH]c(C#N)cc5c4C)C3)C2)c2cc(CC(F)(F)F)sc2n1 (stereo not shown) [Compound 41]
- IC50: > 1 µM

SMILES: CNc1nc(N2CCC3(CCN(Cc4ccc5[nH]c(C#N)cc5c4C)C3)C2)c2cc(CC(F)(F)F)sc2n1 (stereo not shown) [Compound 42]
- IC50: 0.25 to 1 µM

SMILES: Cc1c(CN2CCC3(CCN(c4ncnc5sc(CC(F)(F)F)cc45)C3)C2)ccc2c1cc(C#N)n2C[C@H](C)N1CCN(S(C)(=O)=O)CC1 (stereo partly shown) [Compound 43]
- IC50: < 0.05 µM

SMILES: Cc1c(CN2CCC3(CCN(c4ncnc5sc(CC(F)(F)F)cc45)C3)C2)ccc2c1cc(C#N)n2C[C@@H]1CNC(=O)OC1 (stereo partly shown) [Compound 44]
- IC50: < 0.05 µM

SMILES: CNS(=O)(=O)N1CCN([C@@H](C)Cn2c(C#N)cc3c(C)c(CN4CCC5(CCN(c6ncnc7sc(CC(F)(F)F)cc67)C5)C4)ccc32)CC1 (stereo partly shown) [Compound 45]
- IC50: < 0.05 µM

SMILES: CNc1nc(N2CCC3(CCN(Cc4ccc5c(cc(C#N)n5CCN5CCN(S(=O)(=O)NC)CC5)c4C)C3)C2)c2cc(CC(F)(F)F)sc2n1 (stereo not shown) [Compound 46]
- IC50: 0.05 to 0.25 µM

SMILES: CNc1nc(N2CCC3(CCN(Cc4ccc5c(cc(C#N)n5C[C@H](C)N5CCC(S(=O)(=O)NC)CC5)c4C)C3)C2)c2cc(CC(F)(F)F)sc2n1 (stereo partly shown) [Compound 68]
- IC50: < 0.05 µM

SMILES: CNS(=O)(=O)C1CCN([C@@H](C)Cn2c(C#N)cc3c(C)c(CN4CCC5(CCN(c6nc(C)nc7sc(CC(F)(F)F)cc67)C5)C4)ccc32)CC1 (stereo partly shown) [Compound 69]
- IC50: < 0.05 µM

SMILES: CNS(=O)(=O)C1CCN([C@@H](C)Cn2c(C#N)cc3c(C)c(CN4CCC5(CCN(c6ncnc7sc(CC(F)(F)F)cc67)C5)C4)ccc32)CC1 (stereo partly shown) [Compound 70]
- IC50: < 0.05 µM

SMILES: CNc1nc(N2CCC3(CCN(Cc4ccc5c(cc(C#N)n5C[C@H](C)N5CCC(S(C)(=O)=O)CC5)c4C)C3)C2)c2cc(CC(F)(F)F)sc2n1 (stereo partly shown) [Compound 75]
- IC50: < 0.05 µM

SMILES: CNc1nc(N2CCC3(CCN(Cc4ccc5c(cc(C#N)n5CCN5CCC(S(C)(=O)=O)CC5)c4C)C3)C2)c2cc(CC(F)(F)F)sc2n1 (stereo not shown) [Compound 77]
- IC50: < 0.05 µM

SMILES: CNc1nc(N2CCC3(CCN(Cc4ccc(NS(=O)(=O)NC)cc4)C3)C2)c2cc(CC(F)(F)F)sc2n1 (stereo not shown) [Compound 96]
- IC50: > 1 µM

SMILES: Cc1c(CN2CCC3(CCN(c4nc(N)nc5sc(CC(F)(F)F)cc45)C3)C2)ccc2[nH]c(C#N)cc12 (stereo not shown) [Compound 125]
- IC50: > 1 µM

SMILES: CCS(=O)(=O)Nc1ccc(CN2CCC3(CCN(c4nc(NC)nc5sc(CC(F)(F)F)cc45)C3)C2)cc1 (stereo not shown) [Compound 126]
- IC50: 0.05 to 0.25 µM

SMILES: CNc1nc(N2CC3CN(Cc4ccc5[nH]c(C#N)cc5c4C)CC3C2)c2cc(CC(F)(F)F)sc2n1 (stereo not shown) [Compound 127]
- IC50: 0.05 to 0.25 µM

SMILES: CNc1nc(N2CC3CN(CCc4ccccc4)CC3C2)c2cc(CC(F)(F)F)sc2n1 (stereo not shown) [Compound 128]
- IC50: > 1 µM

SMILES: CNc1nc(N2CC3CCN(Cc4ccc5[nH]c(C#N)cc5c4C)C3C2)c2cc(CC(F)(F)F)sc2n1 (stereo not shown) [Compound 129]
- IC50: > 1 µM

SMILES: CNc1nc(N2CC3CN(CCc4ccc5[nH]ccc5c4)CC3C2)c2cc(CC(F)(F)F)sc2n1 (stereo not shown) [Compound 139]
- IC50: 0.25 to 1 µM

SMILES: CNc1nc(N2CC3CCN(Cc4ccc5[nH]c(=O)[nH]c5c4)C3C2)c2cc(CC(F)(F)F)sc2n1 (stereo not shown) [Compound 140]
- IC50: > 1 µM

SMILES: CNc1nc(N2CC3CCN(Cc4ccccc4)C3C2)c2cc(CC(F)(F)F)sc2n1 (stereo not shown) [Compound 141]
- IC50: > 1 µM

SMILES: CNc1nc(N2CC3CCN(CCc4ccccc4)C3C2)c2cc(CC(F)(F)F)sc2n1 (stereo not shown) [Compound 142]
- IC50: > 1 µM

SMILES: CNc1nc(N2CCC3CCN(Cc4ccc5[nH]c(C#N)cc5c4C)C3C2)c2cc(CC(F)(F)F)sc2n1 (stereo not shown) [Compound 143]
- IC50: > 1 µM

SMILES: CNc1nc(N2CCC3CCN(Cc4ccc5[nH]c(=O)[nH]c5c4)C3C2)c2cc(CC(F)(F)F)sc2n1 (stereo not shown) [Compound 144]
- IC50: > 1 µM

SMILES: CNc1nc(N2CCC3CCN(Cc4ccccc4)C3C2)c2cc(CC(F)(F)F)sc2n1 (stereo not shown) [Compound 145]
- IC50: > 1 µM

SMILES: CNc1nc(N2CC3CN(Cc4ccc(C#N)cc4)CC3C2)c2cc(CC(F)(F)F)sc2n1 (stereo not shown) [Compound 146]
- IC50: > 1 µM

SMILES: CNc1nc(N2CC3CN(Cc4ccc(NS(C)(=O)=O)cc4)CC3C2)c2cc(CC(F)(F)F)sc2n1 (stereo not shown) [Compound 147]
- IC50: > 1 µM

SMILES: CNc1nc(N2CC3CN(Cc4ccc(NC(C)=O)cc4)CC3C2)c2cc(CC(F)(F)F)sc2n1 (stereo not shown) [Compound 148]
- IC50: > 1 µM

SMILES: Cc1nc(N2CC3CN(Cc4ccc5[nH]c(C#N)cc5c4C)CC3C2)c2cc(CC(F)(F)F)sc2n1 (stereo not shown) [Compound 149]
- IC50: > 1 µM

SMILES: Cc1c(CN2CC3CN(c4ncnc5sc(CC(F)(F)F)cc45)CC3C2)ccc2[nH]c(C#N)cc12 (stereo not shown) [Compound 150]
- IC50: > 1 µM

SMILES: CNc1nc(N2CC3CN(Cc4ccc5c(cc(C#N)n5CCN5CCN(S(C)(=O)=O)CC5)c4C)CC3C2)c2cc(CC(F)(F)F)sc2n1 (stereo not shown) [Compound 151]
- IC50: > 1 µM

SMILES: CNc1nc(N2CCC3CN(Cc4ccccc4)CC3C2)c2cc(CC(F)(F)F)sc2n1 (stereo not shown) [Compound 152]
- IC50: 0.25 to 1 µM

SMILES: CNc1nc(N2CCC3CN(Cc4ccc5[nH]c(C#N)cc5c4C)CC3C2)c2cc(CC(F)(F)F)sc2n1 (stereo not shown) [Compound 153]
- IC50: > 1 µM

SMILES: CNc1nc(N2CCC3CN(CCc4ccccc4)CC3C2)c2cc(CC(F)(F)F)sc2n1 (stereo not shown) [Compound 154]
- IC50: > 1 µM

SMILES: CNc1nc(N2CCC3CN(CCc4ccc5[nH]ccc5c4)CC3C2)c2cc(CC(F)(F)F)sc2n1 (stereo not shown) [Compound 155]
- IC50: 0.25 to 1 µM

SMILES: CNc1nc(N2CC3CCN(Cc4ccccc4)CC3C2)c2cc(CC(F)(F)F)sc2n1 (stereo not shown) [Compound 156]
- IC50: > 1 µM

SMILES: CNc1nc(N2CC3CCN(Cc4ccc5[nH]c(C#N)cc5c4C)CC3C2)c2cc(CC(F)(F)F)sc2n1 (stereo not shown) [Compound 157]
- IC50: > 1 µM

SMILES: CNc1nc(N2CC3CCN(CCc4ccccc4)CC3C2)c2cc(CC(F)(F)F)sc2n1 (stereo not shown) [Compound 158]
- IC50: > 1 µM

SMILES: CNc1nc(N2CC3CCN(CCc4ccc5[nH]ccc5c4)CC3C2)c2cc(CC(F)(F)F)sc2n1 (stereo not shown) [Compound 159]
- IC50: > 1 µM
